Data on 31 molecules can be found in patent US20130005710A1, “AMINOPYRIDINE DERIVATIVE” (priority 2009, published 2013).

Each structure is given as a SMILES string.

For one assay, the system named is rat mixed glial culture. The assay can be described thus: Neurogenesis promoting effect in rat mixed glial culture (neuronal differentiation, beta-tubulin III ELISA). In kind it is cell-based. The settings on record: 1 μM compound + rhIGF-1 100 ng/ml, 3 days; control (only rhIGF-1) = 100%; absorbance 450 nm. The method, then: The hippocampus and the cerebral cortex were excised from each of 3-day-old SD rats. A cell suspension was prepared therefrom using a neuron dispersion kit (Sumitomo Bakelite Co., Ltd., MB-X9901) and inoculated at concentration of 10^5 cells/well to a 96-well plate coated with type I collagen (AGC Techno Glass Co., Ltd., 4860-010). The cells were cultured in a growth medium (D-MEM/F12 containing 10% FBS and PS) at 37° C. for 4 days under 5% CO2 conditions.
After the culture, the medium was replaced by a differentiation medium (D-MEM/F12 containing PS), and rhIGF-1 (R&D Systems, 291-G1-250, final concentration: 100 ng/ml) and 1 μM compound were added thereto. The cells were further cultured for 3 days. The cultured cells were fixed in 4% paraformaldehyde-PBS (Muto Pure Chemicals Co., Ltd.), subjected to membrane permeation treatment with 0.1% Triton X-100 PBS, and blocked with Block Ace solution (DS Pharma Biomedical Co., Ltd., UK-B80). Anti-neuron-specific class III beta-tubulin Antibody (R&D Systems, MAB1195, clone Tuj-1) was diluted 1000-fold and used as a primary antibody. Anti-Mouse Ig, HRP-Linked F(ab′)2 Fragment Sheep (GE Healthcare, NA9310) was diluted 10000-fold and used as a secondary antibody. A plate washer (BIO-TEK INSTRUMENTS ELX405) was used in washing operation. TMB Microwell Peroxidase Substrate System (Kirkegaard & Perry Laboratories, 50-76-00) was used in color reaction, which was performed for 10 minutes and stopped by addition of 1 M phosphoric acid. Absorbance at 450 nm was measured using a plate reader (Labsystems Multiskan BICHROMATIC).
The rate of increase in the absorbance of the compound-supplemented group (compound+rhIGF-1) relative to that of a compound-unsupplemented group (control, only rhIGF-1) as 100% was determined in terms of % control.
A general note: In an ELISA, binding on a coated surface is turned into a signal by an enzyme label.
Turning to `COc1ccc(N2CCOC(c3ccc(C(F)(F)F)cc3)C2)c(-c2ccc(N(C)C)cc2)n1` (single isomer, unassigned) [Example 5, 4-(6-methoxy-3-{2-[4-(trifluoromethyl)phenyl]morpholin-4-yl}pyridin-2-yl)-N,N-dimethylaniline], the “Ratio of absorbance of compound-supplemented group to control (%)” value amounted to 765%.
For `COc1ccc(N2CCOC(c3ccc(C(F)(F)F)cc3)C2)c(-c2ccc(N(C)C)cc2)n1` (single isomer, unassigned) [Example 6, 4-(6-methoxy-3-{2-[4-(trifluoromethyl)phenyl]morpholin-4-yl}pyridin-2-yl)-N,N-dimethylaniline], the “Ratio of absorbance of compound-supplemented group to control (%)” value was 134%.

Staying with this assay, now noted: Rattus norvegicus, 72 h, 1 μM compound + rhIGF-1 100 ng/ml, 3 days; control (only rhIGF-1) = 100%; absorbance 450 nm; read-out: Ratio of absorbance of compound-supplemented group to control (%).
On to `COc1ccc(N2CCOC(c3cccc(C(F)(F)F)c3)C2)c(-c2ccc(N(C)C)cc2)n1` (stereo not shown) [Example 2, 4-(6-methoxy-3-{2-[3-(trifluoromethyl)phenyl]morpholin-4-yl}pyridin-2-yl)-N,N-dimethylaniline], for which the activity at 1 µM is 448%.
Still for that read-out and setting: to `COc1ccc(C2CN(c3ccc(OC)nc3-c3ccc(N(C)C)cc3)CCO2)cc1` (stereo not shown) [Example 3, 4-{6-methoxy-3-[2-(4-methoxyphenyl)morpholin-4-yl]pyridin-2-yl}-N,N-dimethylaniline] belongs 303%; to `COc1ccc(N2CCOC(Cc3cccc(C(F)(F)F)c3)C2)c(-c2ccc(N(C)C)cc2)n1` (stereo not shown) [Example 9, 4-(6-methoxy-3-{2-[3-(trifluoromethyl)benzyl]morpholin-4-yl}pyridin-2-yl)-N,N-dimethylaniline], 321%.
With `CCOC(=O)N1CCN(c2ccc(OC)nc2-c2ccc(N(C)C)cc2)CC1c1ccc(OC)cc1` (stereo not shown) [Example 13, Ethyl 4-{2-[4-(dimethylamino)phenyl]-6-methoxypyridin-3-yl}-2-(4-methoxyphenyl)piperazine-1-carboxylate], the activity at 1 µM was 285%.
As for `COc1ccc(C2CN(c3ccc(OC)nc3-c3ccc(N(C)C)cc3)CCN2)cc1` (stereo not shown) [Example 14, 4-{6-methoxy-3-[3-(4-methoxyphenyl)piperazin-1-yl]pyridin-2-yl}-N,N-dimethylaniline], the activity at 1 µM is 260%.
`COc1ccc(N2CCN(c3ccc(Cl)cc3)CC2)c(-c2ccc(N(C)C)cc2)n1` [Example 24, 4-{3-[4-(4-chlorophenyl)piperazin-1-yl]-6-methoxypyridin-2-yl}-N,N-dimethylaniline]: the activity at 1 µM amounted to 462%.
Take `COc1ccc(N2CCN(c3ccc(OC)c(OC)c3)CC2)c(-c2ccc(N(C)C)cc2)n1` [Example 26, 4-{3-[4-(3,4-dimethoxyphenyl)piperazin-1-yl]-6-methoxypyridin-2-yl}-N,N-dimethylaniline]: the activity at 1 µM stood at 259%.
On the same count and under the same terms, the result for `COc1ccc(CC2CN(c3ccc(OC)nc3-c3ccc(N(C)C)cc3)CCN2C)cc1` (stereo not shown) [Example 34, 4-{6-methoxy-3-[3-(4-methoxybenzyl)-4-methylpiperazin-1-yl]pyridin-2-yl}-N,N-dimethylaniline] reads 783%.
Same read-out and setting: to `COc1ccc(N2CCN(c3ccc(OC)nc3-c3ccc(OC(F)(F)F)cc3)CC2)cc1` [Example 49, 1-(4-methoxyphenyl)-4-{6-methoxy-2-[4-(trifluoromethoxy)phenyl]pyridin-3-yl}piperazine] belongs 887%; to `COc1ccc(-c2nc(OC)ccc2N2CCN(c3ccc(OC)cc3)CC2)cc1` [Example 50, 1-[6-methoxy-2-(4-methoxyphenyl)pyridin-3-yl]-4-(4-methoxyphenyl)piperazine], 546%.
For `COc1ccc(N2CCN(c3ccc(OC)nc3-c3ccc(C(C)C)cc3)CC2)cc1` [Example 51, 1-{6-methoxy-2-[4-(1-methylethyl)phenyl]pyridin-3-yl}-4-(4-methoxyphenyl)piperazine], the activity at 1 µM worked out at 856%.
`COc1ccc(N2CCN(c3ccc(OC)nc3-c3ccc(OC(C)C)cc3)CC2)cc1` [Example 52, 1-{6-methoxy-2-[4-(1-methylethoxy)phenyl]pyridin-3-yl}-4-(4-methoxyphenyl)piperazine]: the activity at 1 µM came to 731%.
On the same count and under the same terms, to `COc1ccc(N2CCN(c3ccc(OC)nc3-c3ccc4c(c3)CC(C)(C)O4)CC2)cc1` [Example 60, 1-[2-(2,2-dimethyl-2,3-dihydro-1-benzofuran-5-yl)-6-methoxypyridin-3-yl]-4-(4-methoxyphenyl)piperazine] belongs 218%; to `CCOc1ccc(-c2nc(OC)ccc2N2CCN(c3ccc(OC)cc3)CC2)cc1F` [Example 62, 1-[2-(4-ethoxy-3-fluorophenyl)-6-methoxypyridin-3-yl]-4-(4-methoxyphenyl)piperazine], 439%.
The same measure, in the same setting: the result for `COc1ccc(C2(O)CCN(c3ccc(OC)nc3-c3ccc(OC(F)(F)F)cc3)CC2)cc1` [Example 75, 4-(4-methoxyphenyl)-1-{6-methoxy-2-[4-(trifluoromethoxy)phenyl]pyridin-3-yl}piperidin-4-ol] reads 249%; that for `COc1ccc(N2CCCN(c3ccc(OC)nc3-c3ccc(N(C)C)cc3)CC2)cc1` [Example 85, 4-{6-methoxy-3-[4-(4-methoxyphenyl)-1,4-diazepan-1-yl]pyridin-2-yl}-N,N-dimethylaniline], 385%; that for `COc1ccc(N2CCCN(c3ccc(OC)nc3-c3ccc(N(C)C)cc3)CC2)c(F)c1` [Example 87, 4-{3-[4-(2-fluoro-4-methoxyphenyl)-1,4-diazepan-1-yl]-6-methoxypyridin-2-yl}-N,N-dimethylaniline], 224%.
The same measure, in the same setting: the result for `COc1ccc(N2CCCN(c3ccc(OC)c(OC)c3)CC2)c(-c2ccc(N(C)C)cc2)n1` [Example 89, 4-{3-[4-(3,4-dimethoxyphenyl)-1,4-diazepan-1-yl]-6-methoxypyridin-2-yl}-N,N-dimethylaniline] reads 379%; that for `COc1ccc(N2CCN(c3ccc(OC)nc3-c3ccc(N(C)C)cc3)CCC2=O)cc1` [Example 92, 1-{2-[4-(dimethylamino)phenyl]-6-methoxypyridin-3-yl}-4-(4-methoxyphenyl)-1,4-diazepan-5-one], 449%; that for `COc1ccc(C2CCN(c3ccc(OC)nc3-c3ccc(N(C)C)cc3)CCN2C)cc1` (stereo not shown) [Example 98, 4-{6-methoxy-3-[5-(4-methoxyphenyl)-4-methyl-1,4-diazepan-1-yl]pyridin-2-yl}-N,N-dimethylaniline], 397%.
On to `CCOc1ccc(-c2nc(OC)ccc2N2CCC(c3ccc(OC)cc3)N(CC)CC2)cc1` (stereo not shown) [Example 108, 1-[2-(4-ethoxyphenyl)-6-methoxypyridin-3-yl]-4-ethyl-5-(4-methoxyphenyl)-1,4-diazepane], for which the activity at 1 µM came out at 773%.
On the same count and under the same terms, to `CCOc1ccc(-c2nc(OC)ccc2N2CCN(c3ccc(OC)cc3)CC2)c(F)c1` [Example 113, 1-[2-(4-ethoxy-2-fluorophenyl)-6-methoxypyridin-3-yl]-4-(4-methoxyphenyl)piperazine] belongs 717%; to `COc1ccc(N2CCN(c3ccc(OC)nc3-c3ccc(N(C)C)cc3)CC(C)C2=O)cc1` (stereo not shown) [Example 118, 1-{2-[4-(dimethylamino)phenyl]-6-methoxypyridin-3-yl}-4-(4-methoxyphenyl)-6-methyl-1,4-diazepan-5-one], 528%; to `COc1ccc(N2CCN(c3ccc(OC)nc3-c3ccc(N(C)C)cc3)CC(C)(C)C2)cc1` [Example 119, 4-{6-methoxy-3-[4-(4-methoxyphenyl)-6,6-dimethyl-1,4-diazepan-1-yl]pyridin-2-yl}-N,N-dimethylaniline], 760%.
For the molecule `COc1ccc(N2CCN(c3ccc(OC)nc3-c3ccc(N(C)C)cc3)CCC2C)cc1` (stereo not shown) [Example 134, 4-{6-methoxy-3-[4-(4-methoxyphenyl)-5-methyl-1,4-diazepan-1-yl]pyridin-2-yl}-N,N-dimethylaniline], the activity at 1 µM was 630%.
Same read-out and setting: the result for `COc1ccc(N2CCN(c3c(C)cc(OC)nc3-c3ccc(N(C)C)cc3)CC2)cc1` [Example 159, 4-{6-methoxy-3-[4-(4-methoxyphenyl)piperazin-1-yl]-4-methylpyridin-2-yl}-N,N-dimethylaniline] reads 611%; that for `COc1ccc(N2CCN(c3ccc(OC)nc3-c3ccoc3)CC2)cc1` [Example 160, 1-(2-furan-3-yl-6-methoxypyridin-3-yl)-4-(4-methoxyphenyl)piperazine], 220%.
On the same count and under the same terms, the result for `CCOc1ccc(-c2nc(OC)cc(C)c2N2CCN(c3ccc(OC)cc3)CC2)cn1` [Example 168, 6′-ethoxy-6-methoxy-3-[4-(4-methoxyphenyl)piperazin-1-yl]-4-methyl-2,3′-bipyridine] reads 584%; that for `COc1ccc(N2CCN(c3ccc(OC)nc3-c3cnn(C)c3)CC2)cc1` [Example 169, 1-[6-methoxy-2-(1-methyl-1H-pyrazol-4-yl)pyridin-3-yl]-4-(4-methoxyphenyl)piperazine], 255%.
